Experimental data from patent publication US11186576B2, “Pyrazolo[1,5-A][1,3,5]triazine and pyrazolo[1,5-A]pyrimidine derivatives as CDK inhibitors” (Aurigene Discovery Technologies Limited, priority 2015, dated 2021).
pIC50: −log10 of the molar value. Read-outs that look alike come from different tables or passages of the source.

Target: CDK7/CycH/MNAT1 (Homo sapiens (Human), UniProt P50613)
Experiment: Biochemical assay for CDK7 (TR-FRET kinase assay)
Conditions: for inhibition at 10 µM: read-out: % inhibition @ 10 μM
Method: The ability of compounds to inhibit CDK7 kinase activity was tested in a TR-FRET assay using 5 nM of CDK7/CycH/MNAT1 obtained from Invitrogen, USA. Test compounds were pre-incubated with the kinase at room temperature for 60 min. After incubation, substrate mix [100 nM Ultra-light MBP (Perkin Elmer, USA) and 1 mM ATP (Sigma)] was added. The above reaction was stopped by the addition of 40 mM EDTA after 60 minutes of kinase reaction. 1 nM Eu-labelled antiphospho-MBP antibody [Perkin Elmer, USA] was added, mixed well and the fluorescence emission at 615 nm and 665 nm [excitation at 340 nm] was measured. The final DMSO concentration in the assay was 1%. For IC50 determination, appropriate concentrations were made by ⅓^rd serial dilutions of 10 mM DMSO stock solution of test compound. All the fluorescence measurements were made in a Victor 3 Multilabel Counter [Perkin Elmer, USA]. The IC50 was determined by fitting the dose response data to sigmoidal curve fitting equation using GraphPad Prism software V5. To identify compounds that inhibit CDK7 irreversibly, time depended inhibition studies were carried by pre-incubating compound with the enzyme at three time points (20, 60 and 180 min) and carrying out assay as described above.

[1] = 10 μM compound, 60 min pre-incubation, 1 mM ATP
[2] = 60 min pre-incubation, 1 mM ATP, read-out: IC50

Sequence of CDK7/CycH/MNAT1 (P50613 whole entry): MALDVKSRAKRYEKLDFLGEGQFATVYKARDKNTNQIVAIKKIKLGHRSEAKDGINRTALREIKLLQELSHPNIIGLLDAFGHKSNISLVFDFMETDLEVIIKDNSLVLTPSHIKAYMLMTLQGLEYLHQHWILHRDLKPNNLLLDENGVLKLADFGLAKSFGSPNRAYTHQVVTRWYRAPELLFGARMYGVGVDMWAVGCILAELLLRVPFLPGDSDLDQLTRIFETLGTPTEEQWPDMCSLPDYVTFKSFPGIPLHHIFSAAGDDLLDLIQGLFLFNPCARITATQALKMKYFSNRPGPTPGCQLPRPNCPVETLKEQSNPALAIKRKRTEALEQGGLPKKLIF
Sequence of CDK7/CycH/MNAT1 (P51946 whole entry partner): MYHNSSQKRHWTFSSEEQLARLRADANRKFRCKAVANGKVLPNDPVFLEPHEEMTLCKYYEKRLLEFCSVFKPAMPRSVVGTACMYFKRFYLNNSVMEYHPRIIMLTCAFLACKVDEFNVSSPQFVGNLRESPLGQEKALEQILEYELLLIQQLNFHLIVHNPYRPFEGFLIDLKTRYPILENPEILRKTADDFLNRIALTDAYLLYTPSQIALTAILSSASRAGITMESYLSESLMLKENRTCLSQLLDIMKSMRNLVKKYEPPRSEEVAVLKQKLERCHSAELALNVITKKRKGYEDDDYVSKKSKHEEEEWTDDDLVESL
Sequence of CDK7/CycH/MNAT1 (P51948 whole entry partner): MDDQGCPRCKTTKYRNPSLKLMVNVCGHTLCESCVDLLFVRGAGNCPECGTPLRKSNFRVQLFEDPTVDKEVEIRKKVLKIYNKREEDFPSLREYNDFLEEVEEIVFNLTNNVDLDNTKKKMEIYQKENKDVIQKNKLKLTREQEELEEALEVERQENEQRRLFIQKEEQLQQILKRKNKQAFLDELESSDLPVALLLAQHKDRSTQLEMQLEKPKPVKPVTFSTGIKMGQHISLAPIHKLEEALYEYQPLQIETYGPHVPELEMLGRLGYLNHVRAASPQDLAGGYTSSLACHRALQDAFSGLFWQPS

SMILES	inhibition at 10 µM [1] [%]	pIC50 [2]	% inhibition @ 10 μM [1] [%]	pIC50 (IC50, 60 min pre-incubation, 1 mM ATP)	inhibition at 10 µM [%]
CC(C)c1cnn2c(NCc3cccc(NC(=O)C4CCCCN4C(=O)/C=C/CN4CCCC4)c3)nc(NC3CCOCC3)nc12 (stereo not shown) [Compound 77, (E)-N-(3-(((8-isopropyl-2-((tetrahydro-2H-pyran-4-yl)amino)pyrazolo[1,5-a][1,3,5]triazin-4-yl)amino)methyl)phenyl)-1-(4-(pyrrolidin-1-yl)but-2-enoyl)piperidine-2-carboxamide]	99	> 6.52			
C=CC(=O)N1CCN(C(=O)Oc2cccc(CNc3nc(OC4CCN(C)CC4)nc4c(C(C)C)cnn34)c2)CC1 [Compound 121, 3-(((8-isopropyl-2-((1-methylpiperidin-4-yl)oxy)pyrazolo[1,5-a][1,3,5]triazin-4-yl)amino)methyl)phenyl 4-acryloylpiperazine-1-carboxylate]				> 6.52	93
CC(C)c1cnn2c(NCc3ccc(NC(=O)/C=C/CN4CCCC4)cc3)nc(NC3CCOCC3)nc12 [Compound 63, (E)-N-(4-(((8-isopropyl-2-((tetrahydro-2H-pyran-4-yl)amino)pyrazolo[1,5-a][1,3,5]triazin-4-yl)amino)methyl)phenyl)-4-(pyrrolidin-1-yl)but-2-enamide]	94	6.00 to 6.52			
CC(C)c1cnn2c(NCc3ccccc3NC(=O)/C=C/CN(C)C)nc(NC3CCOCC3)nc12 [Compound 62, (E)-4-(dimethylamino)-N-(2-(((8-isopropyl-2-((tetrahydro-2H-pyran-4-yl)amino)pyrazolo[1,5-a][1,3,5]triazin-4-yl)amino)methyl)phenyl)but-2-enamide]	97	> 6.52			
C=CC(=O)N1CCC1C(=O)Nc1cc(F)cc(CNc2nc(NC3CCOCC3)nc3c(C(C)C)cnn23)c1 (stereo not shown) [Compound 31, 1-acryloyl-N-(3-fluoro-5-(((8-isopropyl-2-((tetrahydro-2H-pyran-4-yl)amino)pyrazolo[1,5-a][1,3,5]triazin-4-yl)amino)methyl)phenyl)azetidine-2-carboxamide]	100	> 6.52			
CC(C)c1cnn2c(NCc3cc(F)cc(NC(=O)C4CCN(C(=O)/C=C/CN(C)C)C4)c3)nc(NC3CCOCC3)nc12 (stereo not shown) [Compound 71, (E)-1-(4-(dimethylamino)but-2-enoyl)-N-(3-fluoro-5-(((8-isopropyl-2-((tetrahydro-2H-pyran-4-yl)amino)pyrazolo[1,5-a][1,3,5]triazin-4-yl)amino)methyl)phenyl)pyrrolidine-3-carboxamide]	92	6.00 to 6.52			
CC(C)c1cnn2c(NCc3cccc(NC/C=C/C(=O)N(C)C)c3)nc(NC3CCOCC3)nc12 [Compound 49, (E)-4-((3-(((8-isopropyl-2-((tetrahydro-2H-pyran-4-yl)amino)pyrazolo[1,5-a][1,3,5]triazin-4-yl)amino)methyl)phenyl)amino)-N,N-dimethylbut-2-enamide]	84	< 6.00			
C=CC(=O)N1CCCC(C(=O)Nc2cccc(CNc3nc(OC4CCN(C)CC4)nc4ccnn34)c2)C1 (stereo not shown) [Compound 89, 1-acryloyl-N-(3-(((2-((1-methylpiperidin-4-yl)oxy)pyrazolo[1,5-a][1,3,5]triazin-4-yl)amino)methyl)phenyl)piperidine-3-carboxamide]	38				
CC(C)c1cnn2c(Nc3cccc(C(=O)NC4CCCN(C(=O)/C=C/CN(C)C)C4)c3)nc(OC3CCN(C)CC3)nc12 (stereo not shown) [Compound 133, (E)-N-(1-(4-(dimethylamino)but-2-enoyl)piperidin-3-yl)-3-((8-isopropyl-2-((1-methylpiperidin-4-yl)oxy)pyrazolo[1,5-a][1,3,5]triazin-4-yl)amino)benzamide]	97	> 6.52			
C=CC(=O)Nc1ccccc1C(=O)Nc1cccc(CNc2nc(NC3CCOCC3)nc3c(C(C)C)cnn23)c1 [Compound 48, 2-acrylamido-N-(3-(((8-isopropyl-2-((tetrahydro-2H-pyran-4-yl)amino)pyrazolo[1,5-a][1,3,5]triazin-4-yl)amino)methyl)phenyl)benzamide]	98	> 6.52			
CC(C)c1cnn2c(NCc3cccc(NC(=O)/C=C/CN4CCCC(F)C4)c3)nc(NC3CCOCC3)nc12 (stereo not shown) [Compound 58, (E)-4-(3-fluoropiperidin-1-yl)-N-(3-(((8-isopropyl-2-((tetrahydro-2H-pyran-4-yl)amino)pyrazolo[1,5-a][1,3,5]triazin-4-yl)amino)methyl)phenyl)but-2-enamide]	96	6.00 to 6.52			
CC(C)c1cnn2c(NCc3cccc(NC(=O)/C=C/CN4CCCC4)c3)nc(NC3CCOCC3)nc12 [Compound 54, (E)-N-(3-(((8-isopropyl-2-((tetrahydro-2H-pyran-4-yl)amino)pyrazolo[1,5-a][1,3,5]triazin-4-yl)amino)methyl)phenyl)-4-(pyrrolidin-1-yl)but-2-enamide]	98	> 6.52			
C=CC(=O)N1CCCC(C(=O)Nc2cccc(C(C)Nc3nc(NC4CCOCC4)nc4c(C(C)C)cnn34)c2)C1 (stereo not shown) [Compound 45, 1-acryloyl-N-(3-(1-((8-isopropyl-2-((tetrahydro-2H-pyran-4-yl)amino)pyrazolo[1,5-a][1,3,5]triazin-4-yl)amino)ethyl)phenyl)piperidine-3-carboxamide]	73	< 6.00			
CC(C)c1cnn2c(NCc3ccc(F)c(NC(=O)C4CCN(C(=O)/C=C/CN(C)C)C4)c3)nc(NC3CCOCC3)nc12 (stereo not shown) [Compound 64, (E)-1-(4-(dimethylamino)but-2-enoyl)-N-(2-fluoro-5-(((8-isopropyl-2-((tetrahydro-2H-pyran-4-yl)amino)pyrazolo[1,5-a][1,3,5]triazin-4-yl)amino)methyl)phenyl) pyrrolidine-3-carboxamide]	91	6.00 to 6.52			

Continued, in another order:

inhibition at 10 µM [1] [%]	pIC50 [2]	% inhibition @ 10 μM [1] [%]	SMILES	pIC50 (IC50, 60 min pre-incubation, 1 mM ATP)	inhibition at 10 µM [%]
73	< 6.00		C=CC(=O)N1CCC(C(=O)Nc2cccc(CNc3nc(OC)nc4c(C(C)C)cnn34)c2)CC1 [Compound 136, 1-acryloyl-N-(3-(((8-isopropyl-2-methoxypyrazolo[1,5-a][1,3,5]triazin-4-yl)amino)methyl)phenyl)piperidine-4-carboxamide]		
	< 6.00	82	C=CC(=O)N[C@H]1CC[C@@H](C(=O)Nc2cccc(CNc3nc(OC4CCOCC4F)nc4c(C(C)C)cnn34)c2)CC1 (single isomer, unassigned) [Compound 99, 4-acrylamido-N-(3-(((2-((3-fluorotetrahydro-2H-pyran-4-yl)oxy)-8-isopropylpyrazolo[1,5-a][1,3,5]triazin-4-yl)amino)methyl)phenyl)cyclohexane-1-carboxamide]		
82	6.00 to 6.52		C=CC(=O)N[C@H]1CC[C@@H](C(=O)Nc2cccc(CNc3nc(OC4CCOC4)nc4c(C(C)C)cnn34)c2)CC1 (stereo partly drawn) [Compound 100, (1,4-cis)-4-acrylamido-N-(3-(((8-isopropyl-2-((tetrahydrofuran-3-yl)oxy)pyrazolo[1,5-a][1,3,5]triazin-4-yl)amino)methyl)phenyl)cyclohexane-1-carboxamide]		
89	6.00 to 6.52		C=CC(=O)N[C@H]1CC[C@@H](C(=O)Nc2cccc(CNc3nc(NC4CCCC(O)C4)nc4c(C(C)C)cnn34)c2)CC1 (single isomer, unassigned) [Compound 10, 4-acrylamido-N-(3-(((2-((3-hydroxycyclohexyl)amino)-8-isopropylpyrazolo[1,5-a][1,3,5]triazin-4-yl)amino)methyl)phenyl)cyclohexane-1-carboxamide]		
88	6.00 to 6.52		C=CC(=O)N[C@H]1CC[C@@H](C(=O)Nc2cccc(CNc3nc(OC4CCOCC4F)nc4c(C(C)C)cnn34)c2)CC1 (single isomer, unassigned) [Compound 98, 4-acrylamido-N-(3-(((2-((3-fluorotetrahydro-2H-pyran-4-yl)oxy)-8-isopropylpyrazolo[1,5-a][1,3,5]triazin-4-yl)amino)methyl)phenyl)cyclohexane-1-carboxamide]		
99	> 6.52		C#CC(=O)N1CCOCC1C(=O)Nc1cccc(CNc2nc(NC3CCOCC3)nc3c(C(C)C)cnn23)c1 (stereo not shown) [Compound 25, N-(3-(((8-isopropyl-2-((tetrahydro-2H-pyran-4-yl)amino)pyrazolo[1,5-a][1,3,5]triazin-4-yl)amino)methyl)phenyl)-4-propioloylmorpholine-3-carboxamide]		
79	6.00 to 6.52		C=CC(=O)N1CCC(C(=O)Nc2cc(CNc3nc(NC4CCOCC4)nc4c(C(C)C)cnn34)ccc2F)C1 (stereo not shown) [Compound 43, 1-acryloyl-N-(2-fluoro-5-(((8-isopropyl-2-((tetrahydro-2H-pyran-4-yl)amino)pyrazolo[1,5-a][1,3,5]triazin-4-yl)amino)methyl)phenyl)pyrrolidine-3-carboxamide]		
99	> 6.52		CC(C)c1cnn2c(NCc3cccc(NC(=O)C4CCCCN4C(=O)/C=C/CN(C)C)c3)nc(NC3CCOCC3)nc12 (stereo not shown) [Compound 74, (E)-1-(4-(dimethylamino)but-2-enoyl)-N-(3-(((8-isopropyl-2-((tetrahydro-2H-pyran-4-yl)amino)pyrazolo[1,5-a][1,3,5]triazin-4-yl)amino)methyl)phenyl)piperidine-2-carboxamide]		
